The text below walks through data of patent publication US8163737B2 (Vertex Pharmaceuticals Incorporated, priority 2006, dated 2012).

pIC50: −log10 of the molar value.

Sequence of endogenous CGRP receptor (Q16602 23-461): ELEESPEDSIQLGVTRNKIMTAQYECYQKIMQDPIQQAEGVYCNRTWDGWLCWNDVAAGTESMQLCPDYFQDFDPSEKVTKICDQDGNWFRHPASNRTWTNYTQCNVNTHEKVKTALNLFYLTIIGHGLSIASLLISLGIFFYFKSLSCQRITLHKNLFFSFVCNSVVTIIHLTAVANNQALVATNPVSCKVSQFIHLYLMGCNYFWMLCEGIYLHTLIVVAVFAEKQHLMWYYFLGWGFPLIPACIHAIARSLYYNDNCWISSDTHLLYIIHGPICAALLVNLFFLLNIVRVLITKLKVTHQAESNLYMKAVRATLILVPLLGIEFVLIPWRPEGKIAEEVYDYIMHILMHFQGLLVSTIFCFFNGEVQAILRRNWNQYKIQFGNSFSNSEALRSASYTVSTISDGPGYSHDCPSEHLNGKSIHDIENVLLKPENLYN
Sequence of endogenous CGRP receptor (O60894 27-148): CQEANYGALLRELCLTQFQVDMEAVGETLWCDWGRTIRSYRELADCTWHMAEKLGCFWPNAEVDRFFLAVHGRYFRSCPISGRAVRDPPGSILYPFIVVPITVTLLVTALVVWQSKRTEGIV

The target of this test is endogenous CGRP receptor (Homo sapiens, UniProt O60894+Q16602). Description: CGRP functional antagonism using SK-N-MC-BLA (4C10), β-lactamase transcriptional reporter assay. It counts as cell-based. Conditions: SK-N-MC (4C10) cells, inhibition of β-lactamase expression in the presence of 200 pM CGRP. The source says:
Measuring CGRP Functional Antagonism Using SK-N-MC-BLA (4C10):
CGRP functional antagonism was characterized in a cell based transcriptional assay using a recombinant SK-N-MC line. To introduce the transcriptional reporter system, SK-N-MC cell line was transduced with a retroviral vector containing β-lactamase gene downstream of cAMP responsive promoter. The expression of β-lactamase is triggered by cAMP increase that is a downstream event of activation of endogenous CGRP receptor. Single clones were separated using Fluorescent Activated Cell Sorting (FACS) based on CGRP induced β-lactamase activity. β-lactamase activity was measured using a fluorescence energy transfer (FRET) dye, CCF4. […] To evaluate functional antagonist activity of compounds in SK-N-MC (4C10) line, compounds were evaluated for their inhibition of β-lactamase expression in the presence of CGRP.
SK-N-MC (4C10) was cultured in Minimal Essential Media (MEM) (Invitrogen) supplemented with 1 mM non-essential amino acids solution (Invitrogen), 100 units/ml Penicillin-Streptomycin (Invitrogen), 1 mM sodium pyruvate (Invitrogen) and 10% fetal bovine serum. For the β-lactamase assay, low serum, 1% FBS in MEM was used. 30,000 cells were plated into each wells of poly-D-lysine coated 384-well plate (Becton Dickinson) a day prior to the assay. SK-N-MC (4C10) was preincubated with compounds for 30 min before the addition of 200 pM CGRP. The assay was incubated for 3 hours at 37° C. to allow β-lactamase expression. CCF4 dye was added and incubated for 2 hours at room temperature. […] Curve fitting and IC50 calculation were carried about using MOD3.
The pIC50 is −log10 of the IC50, conventionally taken in molar units. For the compound `CC(=O)N1CC2(CCN(C(=O)CC3SC(c4ccccc4)N(CCC(C)C)C3=O)CC2)c2cc(C(F)(F)F)ccc21` (stereo not drawn) [Compound 131], the pIC50 is below 5.30.
Regarding `CN1C(=O)C(CC(=O)N2CCC(N3CCc4ccccc4NC3=O)CC2)SC1c1ccccc1` (stereo not drawn) [Compound 132], the pIC50 is 5.30 to 6.00.
Regarding `Cc1cccc(C)c1C1SC(CC(=O)N2CCC(N3Cc4ccccc4NC3=O)CC2)C(=O)N1CCC(C)C` (stereo not drawn) [Compound 134], the pIC50 is above 6.00.
On to `O=C(CC1SC(c2ccc(F)cc2F)N(CC2CCCCC2)C1=O)N1CCC(N2CCc3ccccc3NC2=O)CC1` (stereo not drawn) [Compound 135], for which the pIC50 is above 6.00.
For the compound `CC(C)CCN1C(=O)C(CC(=O)N2CCC(N3Cc4ccccc4NC3=O)CC2)SC1c1cc(C(F)(F)F)ccc1F` (stereo not drawn) [Compound 136], the negative logarithm of the IC50 (pIC50) is above 6.00.
Under `O=C(CC1SC(c2ccc(F)cc2F)N(CC2CCCCC2)C1=O)N1CCC(N2Cc3ccccc3NC2=O)CC1` (stereo not drawn) [Compound 137] stands above 6.00; under `O=C(CC1SC(c2ccccc2)N(CC2CC2)C1=O)N1CCC(N2CCc3ccccc3NC2=O)CC1` (stereo not drawn) [Compound 138], above 6.00.
Turning to `COc1cccc(C2SC(CC(=O)N3CCC(N4Cc5ccccc5NC4=O)CC3)C(=O)N2CCC(C)C)c1` (stereo not drawn) [Compound 139], the pIC50 is 5.30 to 6.00.
Under `CC(=O)C1(c2ccccc2)CCN(C(=O)CC2SC(c3ccccc3)N(CCC(C)C)C2=O)CC1` (stereo not drawn) [Compound 141] stands below 5.30; under `CC(=O)Nc1ccc(C)cc1C1(O)CCN(C(=O)CC2SC(c3ccccc3)N(CCC(C)C)C2=O)CC1` (stereo not drawn) [Compound 143], below 5.30; under `CCC1SC(CC(=O)N2CCC(n3cc(-c4ccccc4)[nH]c3=O)CC2)C(=O)N1CC1CC1` (stereo not drawn) [Compound 146], below 5.30.
As to `CCC(CC)C1SC(CC(=O)N2CCC(N3Cc4ccccc4NC3=O)CC2)C(=O)N1CCC(C)C` (stereo not drawn) [Compound 151], the pIC50 is above 6.00.
For `CC(C)CCN1C(=O)C(CC(=O)N2CCC(N3CCc4ccccc4NC3=O)CC2)SC1c1ccccc1N(C)C` (stereo not drawn) [Compound 152], the pIC50 was above 6.00.
Take `CC(C)(C)CCN1C(=O)C(CC(=O)N2CCC(N3Cc4ccccc4NC3=O)CC2)SC12CCCCCC2` (stereo not drawn) [Compound 154]: the pIC50 is above 6.00.
Under `CC(C)CCN1C(=O)C(CC(=O)N2CCC(N3CCc4ccccc4NC3=O)CC2)SC1c1ccc(F)c(F)c1` (stereo not drawn) [Compound 155] stands above 6.00; under `CC(C)CCN1C(=O)C(C(C)C(=O)N2CCC(N3Cc4ccccc4NC3=O)CC2)SC1c1ccccc1` (stereo not drawn) [Compound 156, 3-(1-(2-(3-Isopentyl-4-oxo-2-phenylthiazolidin-5-yl)propanoyl)piperidin-4-yl)-3,4-dihydroquinazolin-2(1H)-one], above 6.00; under `CC(=O)N1CCC2(CCN(C(=O)CC3SC(c4ccccc4)N(CCC(C)C)C3=O)CC2)c2ccccc21` (stereo not drawn) [Compound 157], below 5.30.
The same measure for `CC(C)CCN1C(=O)C(CC(=O)N2CCC(N3Cc4ccccc4NC3=O)CC2)SC1c1ccc(Cl)cc1` (stereo not drawn) [Compound 158]: 5.30 to 6.00; for `CN1CCN(c2ccccc2[C@@H]2SC(CC(=O)N3CCC(n4c(=O)[nH]c5ccccc54)CC3)C(=O)N2CCC(C)(C)C)CC1` (stereo partly drawn) [Compound 161]: above 6.00.
On to `O=C(CC1SC(c2ccccc2F)N(CC2CCCCC2)C1=O)N1CCC(N2CCc3ccccc3NC2=O)CC1` (stereo not drawn) [Compound 164], for which the pIC50 was 5.30 to 6.00.
Consider `CC(C)CCN1C(=O)C(CC(=O)N2CCC(N3Cc4ccccc4NC3=O)CC2)SC1c1c(F)cccc1Cl` (stereo not drawn) [Compound 166], for which the pIC50 was above 6.00.
The same measure for `CC(C)CCN1C(=O)C(CC(=O)N2CCC3(CCc4ccccc43)CC2)SC1c1ccccc1` (stereo not drawn) [Compound 167]: below 5.30; for `CC(C)(C)CCN1C(=O)C(CC(=O)N2CCC(N3Cc4ccccc4NC3=O)CC2)SC1c1cccc2cc[nH]c12` (stereo not drawn) [Compound 168]: 5.30 to 6.00.
On to `CCN1C(=O)C(CC(=O)N2CCC(N3Cc4ccccc4NC3=O)CC2)SC1c1ccccc1` (stereo not drawn) [Compound 177], for which the pIC50 is 5.30 to 6.00.
For the compound `COC(=O)[C@@H](CC(C)C)N1C(=O)C(CC(=O)N2CCC(N3Cc4ccccc4NC3=O)CC2)SC1c1ccccc1` (stereo partly drawn) [Compound 178], the pIC50 is 5.30 to 6.00.
On to `Cc1cc(C2SC(CC(=O)N3CCC(N4Cc5ccccc5NC4=O)CC3)C(=O)N2CCC(C)(C)C)cc2cn[nH]c12` (stereo not drawn) [Compound 179], for which the pIC50 was above 6.00.
`CC(C)CCN1C(=O)C(CC(=O)N2CCC(N3CCc4ccccc4NC3=O)CC2)SC1[C@H](C)c1ccccc1` (stereo partly drawn) [Compound 180]: the pIC50 is 5.30 to 6.00.
The same measure for `CC1=CCCC(C)C1C1SC(CC(=O)N2CCC(N3CCc4ccccc4NC3=O)CC2)C(=O)N1CCC(C)C` (stereo not drawn) [Compound 181]: above 6.00.
With `O=C(CC1SC(c2ccccc2)N(Cc2cccnc2)C1=O)N1CCC(N2CCc3ccccc3NC2=O)CC1` (stereo not drawn) [Compound 185], the negative-log IC50 (pIC50) was above 6.00.
For the compound `CC(C)CCN1C(=O)C(CC(=O)N2CCC3(CC2)C(=O)NCN3c2ccccc2)SC1c1ccccc1` (stereo not drawn) [Compound 186], the negative logarithm of the IC50 (pIC50) was below 5.30.
Turning to `O=C(CC1SC(Cc2ccccc2)N(CC(F)(F)F)C1=O)N1CCC(n2cc(-c3ccccc3)[nH]c2=O)CC1` (stereo not drawn) [Compound 189], the pIC50 was below 5.30.
For `O=C(CC1SC(c2ccccc2)N(CCC(F)(F)F)C1=O)N1CCC(N2Cc3ccccc3NC2=O)CC1` (stereo not drawn) [Compound 191], the pIC50 is above 6.00.
Turning to `CCCC1SC(CC(=O)N2CCC(N3Cc4ccccc4NC3=O)CC2)C(=O)N1CCC(C)C` (stereo not drawn) [Compound 192], the pIC50 was above 6.00.
For the compound `CC(C)CCN1C(=O)C(CC(=O)N2CCC(N3Cc4ccccc4NC3=O)CC2)SC12CCOCC2` (stereo not drawn) [Compound 196], the pIC50 is 5.30 to 6.00.
As for `CC(C)CCN1C(=O)C(CC(=O)N2CCC(N3Cc4ccccc4NC3=O)CC2)SC1c1ccc(C(C)(C)C)cc1` (stereo not drawn) [Compound 197], the pIC50 is below 5.30.
Turning to `CC(C)CCN1C(=O)C(CC(=O)N2CCC(NC(=O)Nc3ccccn3)CC2)SC1c1ccccc1` (stereo not drawn) [Compound 200], the pIC50 was below 5.30.
Consider `CC(C)CCN1C(=O)C(CC(=O)N2CCC(N3Cc4ccccc4NC3=O)CC2)SC1C1CCOCC1` (stereo not drawn) [Compound 201], for which the pIC50 was 5.30 to 6.00.
`COC(=O)[C@H](CC(C)C)N1C(=O)C(CC(=O)N2CCC(N3Cc4ccccc4NC3=O)CC2)SC1c1ccccc1` (stereo partly drawn) [Compound 205]: the pIC50 was 5.30 to 6.00.
On to `Cc1cc(C2SC(CC(=O)N3CCC(N4CCc5ccccc5NC4=O)CC3)C(=O)N2CCC(C)C)cc2cn[nH]c12` (stereo not drawn) [Compound 206], for which the pIC50 was above 6.00.
Consider `CCC(CC)C1SC(CC(=O)N2CCC(N3CCc4ccccc4NC3=O)CC2)C(=O)N1CCC(C)C` (stereo not drawn) [Compound 207], for which the pIC50 is above 6.00.
Under `CC(C)CCN1C(=O)C(CC(=O)N2CCC(N3Cc4ccccc4NC3=O)CC2)SC1C1CCCOC1` (stereo not drawn) [Compound 209] stands above 6.00; under `O=C(CC1SC(c2c(F)cccc2F)N(CC2CCCCC2)C1=O)N1CCC(N2Cc3ccccc3NC2=O)CC1` (stereo not drawn) [Compound 210], above 6.00; under `CC(=O)Nc1ccc(C2SC(CC(=O)N3CCC(N4Cc5ccccc5NC4=O)CC3)C(=O)N2CCC(C)C)cc1` (stereo not drawn) [Compound 213], 5.30 to 6.00.
Consider `CC(C)CC(CO)N1C(=O)C(CC(=O)N2CCC(N3CCc4ccccc4NC3=O)CC2)SC1c1ccccc1` (stereo not drawn) [Compound 214], for which the pIC50 is 5.30 to 6.00.
Take `CC(C)CCN1C(=O)C(CC(=O)N2CCC(N3CCc4ccccc4NC3=O)CC2)SC1c1ccccc1N1CCCCC1` (stereo not drawn) [Compound 215]: the pIC50 was above 6.00.
